Measured values from patent publication US8563550B2, “Imidazolothiadiazoles for use as protein kinase inhibitors” (Centro Nacional de Investigaciones Oncologicas (CNIO), priority 2007, dated 2013).

Biological target: T1, PIM-1 (Homo sapiens, UniProt P11309)
T1 construct: histidine tag (C); made in house
Assay: PIM-1 biochemical assay (ADP Hunter assay kit)
Conditions: compound concentration 10 μM, approximate values; for inhibition at 10 µM: read-out: Percentage Inhibition of PIM-1 at 10 μM
From the text: The biochemical assay to measure PIM-1 activity relies on the ADP Hunter assay kit (DiscoveRx Corp., Cat. #90-0077), that determines the amount of ADP as direct product of the kinase enzyme activity.
The enzyme has been expressed and purified in-house as a recombinant human protein with a C-terminal histidine tag. The protein is active and stable.
Assay conditions were as indicated by the kit manufacturers with the following adaptations for the kinase activity step: • Kinase assay buffer and assay volume stay as recommended (15 mM HEPES, pH 7.4, 20 mM NaCl, 1 mM EGTA, 0.02% Tween 20, 10 mM MgCl2 and 0.1 mg/ml bovine γ-globulins/75 μl assay volume) • Incubation time and temperature: 60 min at 30° C. • PIM-1 concentration: 50 pg/μl • ATP concentration: 100 μM • PIM-1 substrate peptide: PIMtide (ARKRRRHPSGPPTA) • Peptide concentration: 60 μM • Positive control for kinase activity inhibition: 1-10 μM Staurosporine • DMSO concentration have to stay below 2% during the kinase reaction
Assays were performed in either 96 or 384-well plates. The final outcome of the coupled reactions provided by the kit is the release of the fluorescent product Resorufin and has been measured with a multilabel HTS counter VICTOR V (PerkinElmer) using an excitation filter at 544 nm and an emission filter at 580 nm.

T1 sequence (P11309 whole entry): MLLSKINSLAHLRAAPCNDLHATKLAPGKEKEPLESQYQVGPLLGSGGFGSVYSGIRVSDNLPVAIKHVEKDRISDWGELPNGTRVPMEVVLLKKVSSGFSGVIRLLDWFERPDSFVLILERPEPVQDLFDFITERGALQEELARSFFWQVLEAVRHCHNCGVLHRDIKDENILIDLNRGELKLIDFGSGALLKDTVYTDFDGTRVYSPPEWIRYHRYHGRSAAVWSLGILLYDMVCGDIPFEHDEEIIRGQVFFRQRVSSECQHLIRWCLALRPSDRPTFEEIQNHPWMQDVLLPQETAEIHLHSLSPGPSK

## CC(C)CNc1nn2c(-c3cccc(N(C)C)c3)cnc2s1 [34(3), [5-(3-Dimethylamino-phenyl)-imidazo[2,1-b][1,3,4]thiadiazol-2-yl]-isobutyl-amine]
  inhibition at 10 µM: 97%

## 4-{2-[(Furan-2-ylmethyl)-amino]-imidazo[2,1-b][1,3,4]thiadiazol-5-yl}-phenol [34(40)]
  Percentage Inhibition of PIM-1 at 10 μM: 100%

## c1ccc2cc(-c3cnc4sc(NCC5CC5)nn34)ccc2c1 [34(10), Cyclopropylmethyl-(5-naphthalen-2-yl-imidazo[2,1-b][1,3,4]thiadiazol-2-yl)-amine]
  inhibition at 10 µM: 77%

## Clc1cccc(-c2cnc3sc(NCCc4ccccn4)nn23)c1 [34(5), [5-(3-Chloro-phenyl)-imidazo[2,1-b][1,3,4]thiadiazol-2-yl]-(2-pyridin-2-yl-ethyl)-amine]
  inhibition at 10 µM: 98%

## Fc1ccc(CNc2nn3c(-c4cccnc4)cnc3s2)cc1 [34(57), (4-Fluoro-benzyl)-(5-pyridin-3-yl-imidazo[2,1-b][1,3,4]thiadiazol-2-yl)-amine]
  inhibition at 10 µM: 73%

## Oc1ccc(-c2cnc3sc(Nc4ccc(F)cc4)nn23)cc1 [Example 18, 4-[2-(4-Fluoro-phenylamino)-imidazo[2,1-b][1,3,4]thiadiazol-5-yl]-phenol]
  inhibition at 10 µM: 82%

## COc1ccc(CNc2nn3c(-c4ccc5ccccc5c4)cnc3s2)cc1 [34(12), (4-Methoxy-benzyl)-(5-naphthalen-2-yl-imidazo[2,1-b][1,3,4]thiadiazol-2-yl)-amine]
  inhibition at 10 µM: 58%

## CN(C)c1cccc(-c2cnc3sc(Oc4ccc(F)cc4)nn23)c1 [Example 15, {3-[2-(4-Fluoro-phenoxy)-imidazo[2,1-b][1,3,4]thiadiazol-5-yl]-phenyl}-dimethyl-amine]
  inhibition at 10 µM: 89%

## CC(=O)c1cccc(-c2cnc3sc(NCCN4CCOCC4)nn23)c1 [34(65), 1-{3-[2-(2-Morpholin-4-yl-ethylamino)-imidazo[2,1-b][1,3,4]thiadiazol-5-yl]-phenyl}-ethanone]
  inhibition at 10 µM: 77%

## COCCNc1nn2c(-c3ccc4ccccc4c3)cnc2s1 [34(8), (2-Methoxy-ethyl)-(5-naphthalen-2-yl-imidazo[2,1-b][1,3,4]thiadiazol-2-yl)-amine]
  inhibition at 10 µM: 98%

## Cc1cc(-c2cnc3sc(NCC4CC4)nn23)cc(C)c1O [34(58), 4-[2-(Cyclopropylmethyl-amino)-imidazo[2,1-b][1,3,4]thiadiazol-5-yl]-2,6-dimethylphenol]
  inhibition at 10 µM: 97%

## c1ccc(OCCNc2nn3c(-c4ccc5ccccc5c4)cnc3s2)cc1 [34(4), (5-Naphthalen-2-yl-imidazo[2,1-b][1,3,4]thiadiazol-2-yl)-(2-phenoxy-ethyl)-amine]
  inhibition at 10 µM: 71%

## CN(C)c1cccc(-c2cnc3sc(NCC4CCOCC4)nn23)c1 [34(16), [5-(3-Dimethylamino-phenyl)-imidazo[2,1-b][1,3,4]thiadiazol-2-yl]-(tetrahydro-pyran-4-ylmethyl)-amine]
  inhibition at 10 µM: 99%

## COCCNc1nn2c(-c3ccc(F)c(Cl)c3)cnc2s1 [34(14), [5-(3-Chloro-4-fluoro-phenyl)-imidazo[2,1-b][1,3,4]thiadiazol-2-yl]-(2-meth-oxyethyl)-amine]
  inhibition at 10 µM: 96%

## CC(=O)c1cccc(-c2cnc3sc(NCc4cccs4)nn23)c1 [34(22), 1-(3-{2-[(Thiophen-2-ylmethyl)-amino]-imidazo[2,1-b][1,3,4]thiadiazol-5-yl}-phenyl)-ethanone]
  inhibition at 10 µM: 82%

## FC(F)(F)Oc1cccc(-c2cnc3sc(NCC4CC4)nn23)c1 [34(39), Cyclopropylmethyl-[5-(3-trifluoromethoxy-phenyl)-imidazo[2,1-b][1,3,4]thia-diazol-2-yl]-amine]
  Percentage Inhibition of PIM-1 at 10 μM: 82%

## Fc1ccc(-c2cnc3sc(-c4ccccc4)nn23)cc1 [Example 4, 5-(4-Fluorophenyl)-2-phenyl-imidazo[2,1-b][1,3,4]thiadiazole]
  inhibition at 10 µM: 83%

## COc1ccc(CNc2nn3c(-c4ccc(F)c(Cl)c4)cnc3s2)cc1 [34(33), [5-(3-Chloro-4-fluoro-phenyl)-imidazo[2,1-b][1,3,4]thiadiazol-2-yl]-(4-meth-oxybenzyl)-amine]
  inhibition at 10 µM: 84%
